Source: patent US20100168097A1, “Non-Nucleoside Reverse Transcriptase Inhibitors” (priority 2005, published 2010)
Where two headings read alike, the source gives them in different places.

Legend:
[1] = test system: acute HIV infection of T-lymphoid cells; test: Assay for inhibition of HIV replication (spread assay); type: cell-based; details: Human immunodeficiency virus 1; inhibition of HIV replication in T-lymphoid cells
Procedure: An assay for the inhibition of acute HIV infection of T-lymphoid cells (alternatively referred to herein as the “spread assay”) was conducted in accordance with Vacca, J. P. et al., Proc. Natl. Acad. Sci. USA 1994, 91: 4096. […] The compounds of Examples 2-4 and 22 were not tested.

[2] = target: T1, mutant HIV reverse transcriptase, Y181C mutation (Human immunodeficiency virus type 1 group M subtype B, UniProt P04585, Y768C); test: Analogous RT inhibition assay, Y181C mutant; type: biochemical
T1 construct: made in house
Procedure: (§1) 100 μL reaction mixtures were initiated with a combination of primer-template substrate (10 nM final concentration) and dNTPs (0.6 μM dNTPs, 0.75 μM [^3H]-dGTP). The heterodimeric nucleic acid substrate was generated by annealing the DNA primer pD500 (described in Shaw-Reid et al., J. Biol. Chem., 278: 2777-2780; obtained from Integrated DNA Technologies) to t500, a 500 nucleotide RNA template created by in vitro transcription (see Shaw-Reid et al., J. Biol. Chem., 278: 2777-2780). After 1 hour incubation at 37° C., reactions were quenched by 10 μL streptavidin scintillation proximity assay beads (10 mg/mL, from Amersham Biosciences) in 0.5 M EDTA, pH 8. Microtiter plates were incubated an additional 10 minutes at 37° C. prior to quantification via Topcount (Packard).
(§2) Analogous assays were conducted substituting mutant HIV strains to determine the […] inhibition of compounds of the present invention against mutant HIV reverse transcriptase. In one strain the reverse transcriptase has the Y181C mutation and in the other strain the reverse transcriptase has the K103N mutation. The mutations were generated with the […] site-directed mutagenesis kit (Stratagene).

[3] = target: T2, mutant HIV reverse transcriptase, K103N mutation (Human immunodeficiency virus type 1 group M subtype B, UniProt P04585, K690N); test: Analogous RT inhibition assay, K103N mutant; type: biochemical
T2 construct: made in house
Procedure: as §1, §2

[4] = K103N mutant RT, tested up to 20 micromolar, read-out: IC50, K103N mutant assay
[5] = Y181C mutant RT, tested up to 20 micromolar, read-out: IC50, Y181C mutant assay

| SMILES | IC95 [1] [nM] | IC50 [2] [nM] | IC50 [3, 4] [nM] | IC50 [2, 5] [nM] | IC50 [3] [nM] |
| --- | --- | --- | --- | --- | --- |
| CCC(OC)c1cnc(-c2[nH]c3ccc(Br)cc3c2S(=O)(=O)N2CCCC2)[nH]1 (stereo not drawn) [Example 21, 5-bromo-2-[4-(1-methoxypropyl)-1H-imidazol-2-yl]-3-(pyrrolidin-1-ylsulfonyl)-1H-indole] | < 1000 | 1000 to 20000 | < 1000 |  |  |
| O=[N+]([O-])c1ccc(-c2c[nH]c(-c3[nH]c4ccc(Br)cc4c3S(=O)(=O)N3CCCC3)n2)cc1 [Example 32, 5-bromo-2-[4-(4-nitrophenyl)-1H-imidazol-2-yl]-3-(pyrrolidin-1-ylsulfonyl)-1H-indole] | < 1000 | 1000 to 20000 | < 1000 |  |  |
| O=S(=O)(c1c(-c2nc(-c3ccc(Cl)cc3)c[nH]2)[nH]c2ccc(Br)cc12)N1CCCC1 [Example 24, 5-bromo-2-[4-(4-chlorophenyl)-1H-imidazol-2-yl]-3-(pyrrolidin-1-ylsulfonyl)-1H-indole] | < 1000 |  | < 1000 | > 20000 |  |
| O=S(=O)(c1ccccc1)c1c(-c2noc(-c3ccc(F)cc3F)n2)[nH]c2ccc(Cl)cc12 [Example 11, 5-chloro-2-[5-(2,4-difluorophenyl)-1,2,4-oxadiazol-3-yl]-3-(phenylsulfonyl)-1H-indole] | < 1000 |  | > 20000 | > 20000 |  |
| Cc1cnc(-c2[nH]c3ccc(Cl)cc3c2S(=O)(=O)CC2CCC2)[nH]1 [Example 34, 5-Chloro-3-[(cyclobutylmethyl)sulfonyl]-2-(5-methyl-1H-imidazol-2-yl)-1H-indole] | < 1000 |  |  | < 1000 | > 3000 |
| COCc1nc(-c2[nH]c3ccc(Cl)cc3c2S(=O)(=O)c2ccccc2)no1 [Example 1, 5-chloro-2-[5-(methoxymethyl)-1,2,4-oxadiazol-3-yl]-3-(phenylsulfonyl)-1H-indole] | < 1000 | > 20000 |  |  | > 20000 |
| O=S(=O)(c1ccccc1)c1c(-c2noc(-c3ccccc3F)n2)[nH]c2ccc(Cl)cc12 [Example 7, 5-chloro-2-[5-(2-fluorophenyl)-1,2,4-oxadiazol-3-yl]-3-(phenylsulfonyl)-1H-indole] | < 1000 |  | > 20000 | > 20000 |  |
| O=S(=O)(c1ccccc1)c1c(-c2noc(C3CCC3)n2)[nH]c2ccc(Cl)cc12 [Example 13, 5-chloro-2-(5-cyclobutyl-1,2,4-oxadiazol-3-yl)-3-(phenylsulfonyl)-1H-indole] | < 1000 |  | > 20000 | > 20000 |  |
| Cc1cnc(-c2[nH]c3ccc(Cl)cc3c2S(=O)(=O)C2CCCC2)[nH]1 [Example 35, 5-chloro-3-[(cyclopentyl)sulfonyl]-2-(5-methyl-1H-imidazol-2-yl)-1H-indole] | < 1000 |  |  | < 1000 | < 1000 |
| O=S(=O)(c1c(-c2nc(-c3ccc(O)cc3)c[nH]2)[nH]c2ccc(Br)cc12)N1CCCC1 [Example 27, 4-{2-[5-bromo-3-(pyrrolidin-1-ylsulfonyl)-1H-indol-2-yl]-1H-imidazol-4-yl}phenol] | < 1000 |  | < 1000 | 1000 to 20000 |  |
| O=S(=O)(c1c(-c2nc(-c3ccc(N4CCOCC4)cc3)c[nH]2)[nH]c2ccc(Br)cc12)N1CCCC1 [Example 19, 5-bromo-2-[4-(4-morpholin-4-ylphenyl)-1H-imidazol-2-yl]-3-(pyrrolidin-1-ylsulfonyl)-1H-indole] | < 1000 | > 20000 | < 1000 |  |  |
| O=S(=O)(c1c(-c2nc3ccccc3[nH]2)[nH]c2ccc(Br)cc12)N1CCCC1 [Example 17, 2-[5-bromo-3-(pyrrolidin-1-ylsulfonyl)-1H-indol-2-yl]-1H-benzimidazole] | < 1000 | < 1000 | < 1000 |  |  |
| O=S(=O)(c1ccccc1)c1c(-c2noc([C@@H]3C[C@H]3c3ccccc3)n2)[nH]c2ccc(Cl)cc12 [Example 8, 5-chloro-2-{5-[(1R,2R)-2-phenylcyclopropyl]-1,2,4-oxadiazol-3-yl}-3-(phenylsulfonyl)-1H-indole] | 2500 |  | > 20000 | > 20000 |  |
| O=S(=O)(c1c(-c2nc([C@H](O)[C@@H](O)[C@@H](O)CO)c[nH]2)[nH]c2ccc(Br)cc12)N1CCCC1 [Example 18, (1S,2R,3S)-1-{2-[5-bromo-3-(pyrrolidin-1-ylsulfonyl)-1H-indol-2-yl}-1H-imidazol-4-yl}butane-1,2,3,4-tetrol] | < 1000 | 1000 to 20000 | < 1000 |  |  |
| O=S(=O)(c1c(-c2nc(-c3ccc(F)cc3)c[nH]2)[nH]c2ccc(Br)cc12)N1CCCC1 [Example 25, 5-bromo-2-[4-(4-fluorophenyl)-1H-imidazol-2-yl]-3-(pyrrolidin-1-ylsulfonyl)-1H-indole] | < 1000 |  | < 1000 | > 20000 |  |
| CCC(CC)S(=O)(=O)c1c(-c2ncc(C)[nH]2)[nH]c2ccc(Cl)cc12 [Example 37, 5-chloro-3-[(pent-3-yl)sulfonyl]-2-(5-methyl-1H-imidazol-2-yl)-1H-indole] | < 1000 |  |  | < 1000 | > 10000 |
| O=S(=O)(c1c(-c2nc(-c3ccc(F)c(F)c3)c[nH]2)[nH]c2ccc(Br)cc12)N1CCCC1 [Example 26, 5-bromo-2-[4-(3,4-difluorophenyl)-1H-imidazol-2-yl]-3-(pyrrolidin-1-ylsulfonyl)-1H-indole] | < 1000 |  | < 1000 | > 20000 |  |
| COc1ccc(-c2c[nH]c(-c3[nH]c4ccc(Br)cc4c3S(=O)(=O)N3CCCC3)n2)cc1 [Example 28, 5-bromo-2-[4-(4-methoxyphenyl)-1H-imidazol-2-yl]-3-(pyrrolidin-1-ylsulfonyl)-1H-indole] | < 1000 |  | < 1000 | 1000 to 20000 |  |
| O=S(=O)(c1ccccc1)c1c(-c2noc(-c3ccncc3)n2)[nH]c2ccc(Cl)cc12 [Example 10, 5-chloro-3-(phenylsulfonyl)-2-(5-pyridin-4-yl-1,2,4-oxadiazol-3-yl)-1H-indole] | < 1000 | 1000 to 20000 | > 20000 |  |  |
| N#Cc1ccc(-c2c[nH]c(-c3[nH]c4ccc(Br)cc4c3S(=O)(=O)N3CCCC3)n2)cc1 [Example 33, 4-{2-[5-bromo-3-(pyrrolidin-1-ylsulfonyl)-1H-indol-2-yl]-1H-imidazol-4-yl}benzonitrile] | < 1000 | > 20000 | < 1000 |  |  |
| O=S(=O)(c1c(-c2nc(-c3ccc(F)cc3F)c[nH]2)[nH]c2ccc(Br)cc12)N1CCCC1 [Example 22, 5-bromo-2-[4-(2,4-difluorophenyl)-1H-imidazol-2-yl]-3-(pyrrolidin-1-ylsulfonyl)-1H-indole] |  |  | < 1000 | > 20000 |  |
| O=S(=O)(c1ccccc1)c1c(-c2noc(COc3ccccc3)n2)[nH]c2ccc(Cl)cc12 [Example 9, 5-chloro-2-[5-(phenoxymethyl)-1,2,4-oxadiazol-3-yl]-3-(phenylsulfonyl)-1H-indole] | < 1000 |  | > 20000 | > 20000 |  |
| O=S(=O)(c1ccccc1)c1c(-c2nc(-c3ccccn3)cs2)[nH]c2ccc(Cl)cc12 [Example 3, 5-chloro-3-(phenylsulfonyl)-2-(4-pyridin-2-yl-1,3-thiazol-2-yl)-1H-indole] |  |  | > 20000 | > 20000 |  |
| O=S(=O)(c1ccccc1)c1c(-c2nc(-c3cccnc3)cs2)[nH]c2ccc(Cl)cc12 [Example 4, 5-chloro-3-(phenylsulfonyl)-2-(4-pyridin-3-yl-1,3-thiazol-2-yl)-1H-indole] |  |  | > 20000 | > 20000 |  |
| O=S(=O)(c1c(-c2nc(-c3ccc4c(c3)OCO4)c[nH]2)[nH]c2ccc(Br)cc12)N1CCCC1 [Example 30, 2-[4-(1,3-benzodioxol-5-yl)-1H-imidazol-2-yl]-5-bromo-3-(pyrrolidin-1-ylsulfonyl)-1H-indole] | < 1000 |  | < 1000 | 1000 to 20000 |  |
| CCc1nc(-c2[nH]c3ccc(Cl)cc3c2S(=O)(=O)c2ccccc2)no1 [Example 15, 5-chloro-2-(5-ethyl-1,2,4-oxadiazol-3-yl)-3-(phenylsulfonyl)-1H-indole] | < 1000 |  | > 20000 | > 20000 |  |
| O=S(=O)(c1c(-c2ncc(-c3ccccc3)[nH]2)[nH]c2ccc(Br)cc12)N1CCCC1 [Example 23, 5-bromo-2-(4-phenyl-1H-imidazol-2-yl)-3-(pyrrolidin-1-ylsulfonyl)-1H-indole] | < 1000 |  | < 1000 | > 20000 |  |
| Cc1cnc(-c2[nH]c3ccc(Br)cc3c2S(=O)(=O)N2CCCC2)[nH]1 [Example 16, 5-Bromo-2-(4-methyl-1H-imidazol-2-yl)-3-(pyrrolidin-1-ylsulfonyl)-1H-indole] | < 1000 | < 1000 | < 1000 |  |  |
